Test results reported in the supplement of paper PMC11061612.

What was measured:
[1] = tested on: BFTC-905 (Bladder Carcinoma); experiment: Bliss excess, mean over the matrix (fraction); higher = more synergy
Summary of the method: (§1)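 Cell lines in DMEM/F12 or RPMI with 10% FBS were plated in 1536-well plates, held 24 hours at 37°C, 5% CO2, then given two-drug dose matrices for 72 hours (DMSO typically 0.2%). Viability was read by CellTiter-Glo 2.0 luminescence and scaled as inhibition from 0 (vehicle wells) to 1 (blank wells). Combination Emax is the second-highest inhibition in the matrix; Bliss excess is observed combination effect minus expected EA + EB − EA·EB, EA and EB being single-agent effects.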

[2] = tested on: BL-41 (Burkitt's Lymphoma); experiment: as above
Summary of the method: as §1

[3] = tested on: CAMA-1 (Breast Carcinoma); experiment: as above
Summary of the method: as §1

[4] = tested on: DND-41 (T-Lymphoblastic Leukemia); experiment: as above
Summary of the method: as §1

ES1 (Ewing's Sarcoma) [5] = experiment: as above
Summary of the method: as §1

ES8 (Ewing's Sarcoma) [6] = experiment: as above
Summary of the method: as §1

[7] = tested on: GR-ST (B-Lymphoblastic Leukemia); experiment: as above
Summary of the method: as §1

[8] = tested on: K-562 (Chronic Myelogenous Leukemia); experiment: as above
Summary of the method: as §1

[9] = tested on: L-540 (Hodgkin's Lymphoma); experiment: as above
Summary of the method: as §1

[10] = tested on: MKN28 (Gastric Carcinoma); experiment: as above
Summary of the method: as §1

[11] = tested on: NCI-H1792 (Lung Adenocarcinoma); experiment: as above
Summary of the method: as §1

NCI-H2818 (Mesothelioma) [12] = experiment: as above
Summary of the method: as §1

[13] = tested on: SR (Other Blood Carcinomas); experiment: as above
Summary of the method: as §1

[14] = tested on: SW1417 (Colorectal Carcinoma); experiment: as above
Summary of the method: as §1

[15] = tested on: SW837 (Colorectal Carcinoma); experiment: as above
Summary of the method: as §1

WIL2-NS (Non-Cancerous) [16] = experiment: as above
Summary of the method: as §1

WM-115 (Melanoma) [17] = experiment: as above
Summary of the method: as §1

[18] = tested on: BFTC-905 (Bladder Carcinoma); experiment: combination Emax (second highest fraction inhibited in the dose matrix, 72 h); higher = more inhibition; extreme values may be limits of the assay
Summary of the method: as §1

[19] = tested on: BL-41 (Burkitt's Lymphoma); experiment: as above
Summary of the method: as §1

[20] = tested on: CAMA-1 (Breast Carcinoma); experiment: as above
Summary of the method: as §1

[21] = tested on: DND-41 (T-Lymphoblastic Leukemia); experiment: as above
Summary of the method: as §1

ES1 (Ewing's Sarcoma) [22] = experiment: as above
Summary of the method: as §1

ES8 (Ewing's Sarcoma) [23] = experiment: as above
Summary of the method: as §1

[24] = tested on: GR-ST (B-Lymphoblastic Leukemia); experiment: as above
Summary of the method: as §1

[25] = tested on: K-562 (Chronic Myelogenous Leukemia); experiment: as above
Summary of the method: as §1

[26] = tested on: L-540 (Hodgkin's Lymphoma); experiment: as above
Summary of the method: as §1

[27] = tested on: MKN28 (Gastric Carcinoma); experiment: as above
Summary of the method: as §1

[28] = tested on: NCI-H1792 (Lung Adenocarcinoma); experiment: as above
Summary of the method: as §1

NCI-H2818 (Mesothelioma) [29] = experiment: as above
Summary of the method: as §1

[30] = tested on: SR (Other Blood Carcinomas); experiment: as above
Summary of the method: as §1

[31] = tested on: SW1417 (Colorectal Carcinoma); experiment: as above
Summary of the method: as §1

[32] = tested on: SW837 (Colorectal Carcinoma); experiment: as above
Summary of the method: as §1

WIL2-NS (Non-Cancerous) [33] = experiment: as above
Summary of the method: as §1

WM-115 (Melanoma) [34] = experiment: as above
Summary of the method: as §1
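Wherever Bliss excess, mean over the matrix is given: after 72 h of two-drug dosing.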

SMILES: C[C@@H](Nc1cc(F)cc(F)c1)c1cc(C(=O)N(C)C)cc2c(=O)cc(N3CCOCC3)oc12 [AZD8186] + C1CN(CCC1(C(=O)N[C@@H](CCO)C2=CC=C(C=C2)Cl)N)C3=NC=NC4=C3C=CN4 [AZD5363] (first compound max 10 µM, 7x7, partner max 10 µM)
- Bliss excess [1]: -0.0098
- Bliss excess [2]: -0.0264
- Bliss excess [3]: 0.0234
- Bliss excess [4]: 0.0141
- Bliss excess (ES1 (Ewing's Sarcoma) [5]): 0.0388
- Bliss excess (ES8 (Ewing's Sarcoma) [6]): 0.0216
- Bliss excess [7]: -0.03
- Bliss excess [8]: 0.0402
- Bliss excess [9]: -0.024
- Bliss excess [10]: -0.0504
- Bliss excess [11]: -0.0066
- Bliss excess (NCI-H2818 (Mesothelioma) [12]): -0.017
- Bliss excess [13]: -0.0412
- Bliss excess [14]: -0.0038
- Bliss excess [15]: -0.0386
- Bliss excess (WIL2-NS (Non-Cancerous) [16]): 0.0339
- Bliss excess (WM-115 (Melanoma) [17]): -0.0842
- combination Emax [18]: 0.423
- combination Emax [19]: 0.276
- combination Emax [20]: 0.712
- combination Emax [21]: 0.193
- combination Emax (ES1 (Ewing's Sarcoma) [22]): 0.55
- combination Emax (ES8 (Ewing's Sarcoma) [23]): 0.625
- combination Emax [24]: 0.556
- combination Emax [25]: 0.253
- combination Emax [26]: 0.173
- combination Emax [27]: 0.107
- combination Emax [28]: 0.344
- combination Emax (NCI-H2818 (Mesothelioma) [29]): 0.286
- combination Emax [30]: 0.297
- combination Emax [31]: 0.372
- combination Emax [32]: 0.237
- combination Emax (WIL2-NS (Non-Cancerous) [33]): 0.614
- combination Emax (WM-115 (Melanoma) [34]): 0.645

SMILES: C[C@@H](Nc1cc(F)cc(F)c1)c1cc(C(=O)N(C)C)cc2c(=O)cc(N3CCOCC3)oc12 [AZD8186] + CC(=O)c1c(C)c2cnc(Nc3ccc(N4CCNCC4)cn3)nc2n(C2CCCC2)c1=O [Palbociclib] (first compound max 10 µM, 7x7, partner max 10 µM)
- Bliss excess [1]: 0.0553
- Bliss excess [2]: -0.0114
- Bliss excess [3]: 0.0447
- Bliss excess [4]: 0.0875
- Bliss excess (ES1 (Ewing's Sarcoma) [5]): 0.074
- Bliss excess (ES8 (Ewing's Sarcoma) [6]): 0.0321
- Bliss excess [7]: 0.0215
- Bliss excess [8]: 0.0479
- Bliss excess [9]: 0.0275
- Bliss excess [10]: -0.0287
- Bliss excess [11]: 0.0608
- Bliss excess (NCI-H2818 (Mesothelioma) [12]): 0.044
- Bliss excess [13]: 0.0382
- Bliss excess [14]: 0.0187
- Bliss excess [15]: -0.0454
- Bliss excess (WIL2-NS (Non-Cancerous) [16]): -0.0251
- Bliss excess (WM-115 (Melanoma) [17]): 0.0109
- combination Emax [18]: 0.55
- combination Emax [19]: 0.245
- combination Emax [20]: 0.738
- combination Emax [21]: 0.504
- combination Emax (ES1 (Ewing's Sarcoma) [22]): 0.722
- combination Emax (ES8 (Ewing's Sarcoma) [23]): 0.676
- combination Emax [24]: 0.725
- combination Emax [25]: 0.196
- combination Emax [26]: 0.267
- combination Emax [27]: 0.227
- combination Emax [28]: 0.577
- combination Emax (NCI-H2818 (Mesothelioma) [29]): 0.389
- combination Emax [30]: 0.839
- combination Emax [31]: 0.395
- combination Emax [32]: 0.213
- combination Emax (WIL2-NS (Non-Cancerous) [33]): 0.771
- combination Emax (WM-115 (Melanoma) [34]): 0.58

SMILES: C[C@@H](Oc1cc(-c2cnn(C3CCNCC3)c2)cnc1N)c1c(Cl)ccc(F)c1Cl [Crizotinib] + CC1=C(C(=CC=C1)Cl)NC(=O)C2=CN=C(S2)NC3=CC(=NC(=N3)C)N4CCN(CC4)CCO [Dasatinib] (first compound max 10 µM, 7x7, partner max 2 µM)
- Bliss excess [1]: 0.0479
- Bliss excess [2]: 0.0338
- Bliss excess [3]: -0.0273
- Bliss excess [4]: -0.0124
- Bliss excess (ES1 (Ewing's Sarcoma) [5]): -0.0149
- Bliss excess (ES8 (Ewing's Sarcoma) [6]): 0.0154
- Bliss excess [7]: 0.0129
- Bliss excess [8]: 0.0162
- Bliss excess [9]: -0.0447
- Bliss excess [10]: -0.0096
- Bliss excess [11]: 0.0376
- Bliss excess (NCI-H2818 (Mesothelioma) [12]): 0.0145
- Bliss excess [13]: -0.0251
- Bliss excess [14]: 0.0352
- Bliss excess [15]: 0.0025
- Bliss excess (WIL2-NS (Non-Cancerous) [16]): 0.105
- Bliss excess (WM-115 (Melanoma) [17]): -0.0409
- combination Emax [18]: 0.97
- combination Emax [19]: 0.978
- combination Emax [20]: 0.184
- combination Emax [21]: 0.951
- combination Emax (ES1 (Ewing's Sarcoma) [22]): 0.843
- combination Emax (ES8 (Ewing's Sarcoma) [23]): 0.946
- combination Emax [24]: 0.955
- combination Emax [25]: 0.95
- combination Emax [26]: 0.629
- combination Emax [27]: 0.673
- combination Emax [28]: 0.928
- combination Emax (NCI-H2818 (Mesothelioma) [29]): 0.589
- combination Emax [30]: 1
- combination Emax [31]: 0.535
- combination Emax [32]: 0.628
- combination Emax (WIL2-NS (Non-Cancerous) [33]): 0.635
- combination Emax (WM-115 (Melanoma) [34]): 0.49

SMILES: C[C@@H](Oc1cc(-c2cnn(C3CCNCC3)c2)cnc1N)c1c(Cl)ccc(F)c1Cl [Crizotinib] + Cn1cnc2c(F)c(Nc3ccc(Br)cc3Cl)c(C(=O)NOCCO)cc21 [Selumetinib] (first compound max 10 µM, 7x7, partner max 10 µM)
- Bliss excess [1]: -0.0138
- Bliss excess [2]: -0.0265
- Bliss excess [3]: -0.042
- Bliss excess [4]: 0.0194
- Bliss excess (ES1 (Ewing's Sarcoma) [5]): -0.0239
- Bliss excess (ES8 (Ewing's Sarcoma) [6]): -0.0482
- Bliss excess [7]: -0.0439
- Bliss excess [8]: 0.0366
- Bliss excess [9]: -0.0703
- Bliss excess [10]: 0.016
- Bliss excess [11]: -0.022
- Bliss excess (NCI-H2818 (Mesothelioma) [12]): -0.0068
- Bliss excess [13]: -0.0195
- Bliss excess [14]: 0.0093
- Bliss excess [15]: -0.0422
- Bliss excess (WIL2-NS (Non-Cancerous) [16]): -0.026
- Bliss excess (WM-115 (Melanoma) [17]): -0.0547
- combination Emax [18]: 0.912
- combination Emax [19]: 1
- combination Emax [20]: 0.156
- combination Emax [21]: 0.971
- combination Emax (ES1 (Ewing's Sarcoma) [22]): 0.843
- combination Emax (ES8 (Ewing's Sarcoma) [23]): 0.921
- combination Emax [24]: 0.972
- combination Emax [25]: 0.947
- combination Emax [26]: 0.553
- combination Emax [27]: 0.516
- combination Emax [28]: 0.917
- combination Emax (NCI-H2818 (Mesothelioma) [29]): 0.329
- combination Emax [30]: 1
- combination Emax [31]: 0.608
- combination Emax [32]: 0.562
- combination Emax (WIL2-NS (Non-Cancerous) [33]): 0.485
- combination Emax (WM-115 (Melanoma) [34]): 0.476
